The results in this text go back to patent publication US9914730B2, “Azaquinazoline inhibitors of Atypical protein Kinase C” (Ignyta, Inc., priority 2012, dated 2018).

The structures appear in SMILES notation.

For the test, the target named is T1, full-length human PKCι (Homo sapiens, UniProt P41743).
T1 construct: Recombinant, full-length human PKCι expressed in Sf21 insect cells is also commercially available; purchased; host or cells: Sf21 insect cells
T1 sequence (P41743 1-596): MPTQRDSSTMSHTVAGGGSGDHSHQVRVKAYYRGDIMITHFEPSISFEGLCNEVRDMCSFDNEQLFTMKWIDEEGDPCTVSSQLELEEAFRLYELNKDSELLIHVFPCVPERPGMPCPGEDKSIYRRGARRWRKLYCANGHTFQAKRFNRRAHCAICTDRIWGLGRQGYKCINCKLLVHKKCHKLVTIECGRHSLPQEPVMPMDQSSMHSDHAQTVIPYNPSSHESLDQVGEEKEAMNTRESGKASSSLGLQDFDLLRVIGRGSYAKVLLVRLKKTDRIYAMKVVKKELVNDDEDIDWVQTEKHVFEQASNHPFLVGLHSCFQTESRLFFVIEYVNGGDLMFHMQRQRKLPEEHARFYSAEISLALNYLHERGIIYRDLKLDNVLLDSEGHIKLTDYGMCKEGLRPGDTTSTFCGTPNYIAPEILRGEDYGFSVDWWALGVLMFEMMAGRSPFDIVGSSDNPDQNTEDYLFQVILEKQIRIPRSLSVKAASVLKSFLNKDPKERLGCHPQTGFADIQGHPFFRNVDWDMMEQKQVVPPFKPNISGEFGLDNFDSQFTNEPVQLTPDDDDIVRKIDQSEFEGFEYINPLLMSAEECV
The experiment in a line: PKCι IC50 IMAP assay, full-length PKCι at 150 μM ATP. The class given is biochemical. Particulars: read-out: IC50 in IMAP assay against full length PKCi at 150 μM ATP. The gist of the method: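 Dose-response IC50 values come from IMAP fluorescence polarisation after 60 min room-temperature turnover of 100 nM FAM peptide by ~15 pM insect-cell-expressed full-length PKCι at 150 μM ATP (5× KM^APP), normalised to no-compound and no-enzyme controls.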

For `CC(C)(C)c1cc2c(-c3nc(N4CCNCC4)c4c(C5CC5)cnc(F)c4n3)ccnc2[nH]1` [Example 2119, 2-(2-tert-Butyl-1H-pyrrolo[2,3-b]pyridin-4-yl)-5-cyclopropyl-8-fluoro-4-piperazin-1-yl-pyrido[3,4-d]pyrimidine], the 50% inhibitory concentration (IC50) (as a rule, the midpoint of a concentration-inhibition curve) was below 100 nM.
In the case of `COc1cncc2nc(-c3ccnc(Nc4ccccc4)c3)nc(N3CCNCC3)c12` [Example 200, [4-(5-Methoxy-4-piperazin-1-yl-pyrido[3,4-d]pyrimidin-2-yl)-pyridin-2-yl]-phenyl-amine], the IC50 is below 100 nM.
In the case of `Fc1cc(C2CC2)c(F)nc1Nc1cc(-c2nc(N3CCNCC3)c3c(C4CC4)cncc3n2)ccn1` [Example 2047, (5-Cyclopropyl-3,6-difluoro-pyridin-2-yl)-[4-(5-cyclopropyl-4-piperazin-1-yl-pyrido[3,4-d]pyrimidin-2-yl)-pyridin-2-yl]-amine], the IC50 is below 100 nM.
For `Cc1ccc(C(C)C)cc1Nc1cc(-c2nc(N3CCNCC3)c3c(C4CC4)cncc3n2)ccn1` [Example 558, [4-(5-Cyclopropyl-4-piperazin-1-yl-pyrido[3,4-d]pyrimidin-2-yl)-pyridin-2-yl]-(5-isopropyl-2-methyl-phenyl)-amine], the IC50 fell in the range of 100 to 1000 nM.
With `c1ccc(C[C@H]2CN(c3nc(N4CCOCC4)nc4cncc(C5CC5)c34)CCN2)cc1` [Example 1017, 4-((S)-3-Benzyl-piperazin-1-yl)-5-cyclopropyl-2-morpholin-4-yl-pyrido[3,4-d]pyrimidine], the concentration for half-maximal inhibition (IC50) was below 100 nM.
Take `CCN1CCP(=O)(c2ccc(Nc3cc(-c4nc(N5CCNCC5)c5c(C6CC6)cncc5n4)ccn3)c(OC)c2)CC1` [Example 625, [4-(5-Cyclopropyl-4-piperazin-1-yl-pyrido[3,4-d]pyrimidin-2-yl)-pyridin-2-yl]-[4-(1-ethyl-4-oxo-4λ^5-[1,4]azaphos-phinan-4-yl)-2-methoxy-phenyl]-amine]: the IC50 was 100 to 1000 nM.
For `FC(F)(F)c1ccc(Nc2cc(-c3nc(N4CCNCC4)c4c(C5CC5)cncc4n3)ccn2)cn1` [Example 270, [4-(5-Cyclopropyl-4-piperazin-1-yl-pyrido[3,4-d]pyrimidin-2-yl)-pyridin-2-yl]-(6-trifluoromethyl-pyridin-3-yl)-amine], the IC50 lay in the range of 100 to 1000 nM.
For the compound `CN(c1nc(-c2ccnc(Nc3c(F)cccc3F)c2)nc2cncc(C3CC3)c12)C1CCN(CC(F)F)CC1` [Example 2123, {5-Cyclopropyl-2-[2-(2,6-difluoro-phenylamino)-pyridin-4-yl]-pyrido[3,4-d]pyrimidin-4-yl}-[1-(2,2-difluoro-ethyl)-piperidin-4-yl]-methyl-amine], the IC50 was 100 to 1000 nM.
In the case of `O[C@@H]1CCN(c2nc(-c3ccncc3)nc3cnccc23)C1` [Example 36, (3R)-1-[2-(pyridin-4-yl)pyrido[3,4-d]-pyrimidin-4-yl]-pyrrolidin-3-ol] it was 10000 to 40000 nM; in that of `N#Cc1cccc(Nc2cc(-c3nc(N4CC[C@H](O)[C@H](O)C4)c4c(C5CC5)cncc4n3)ccn2)n1` (relative stereo) [Example 745, 6-{4-[5-Cyclopropyl-4-((cis)-3,4-dihydroxy-piperidin-1-yl)-pyrido[3,4-d]pyrimidin-2-yl]-pyridin-2-ylamino}-pyridine-2-carbonitrile], 100 to 1000 nM; in that of `FC(F)(F)c1ccc(Nc2cc(-c3nc(N4CCNCC4)c4c(C5CC5)cncc4n3)ccn2)nc1` [Example 827, [4-(5-Cyclopropyl-4-piperazin-1-yl-pyrido[3,4-d]pyrimidin-2-yl)-pyridin-2-yl]-(5-trifluoromethyl-pyridin-2-yl)-amine], below 100 nM.
In the case of `COc1cncc2nc(-c3ccnc(Nc4ccc(-c5ccccc5)cn4)c3)nc(N[C@@H]3CCNC3)c12` [Example 329, {5-Methoxy-2-[2-(5-phenyl-pyridin-2-ylamino)-pyridin-4-yl]-pyrido[3,4-d]pyrimidin-4-yl}-(R)-pyrrolidin-3-yl-amine] it was below 100 nM; in that of `Fc1cccc(F)c1-c1cc2c(-c3nc(N4CCNCC4)c4c(C5CCC5)cncc4n3)ccnc2[nH]1` [Example 2144, 5-Cyclobutyl-2-[2-(2,6-difluoro-phenyl)-1H-pyrrolo[2,3-b]pyridin-4-yl]-4-piperazin-1-yl-pyrido[3,4-d]pyrimidine], below 100 nM; in that of `Fc1ccc(Nc2cc(-c3nc(N4CCNCC4)c4c(C5CC5)cncc4n3)ccn2)cn1` [Example 672, [4-(5-Cyclopropyl-4-piperazin-1-yl-pyrido[3,4-d]pyrimidin-2-yl)-pyridin-2-yl]-(6-fluoro-pyridin-3-yl)-amine], below 100 nM.
In the case of `Fc1cc(Cl)cnc1Nc1cc(-c2nc(N3CCNCC3)c3c(C4CC4)cncc3n2)ccn1` [Example 2171, (5-Chloro-3-fluoro-pyridin-2-yl)-[4-(5-cyclopropyl-4-piperazin-1-yl-pyrido[3,4-d]pyrimidin-2-yl)-pyridin-2-yl]-amine] it was below 100 nM; in that of `COc1cc(Nc2cc(-c3nc(N4CCNCC4)c4c(C5CC5)cncc4n3)ccn2)ccc1C` [Example 609, [4-(5-Cyclopropyl-4-piperazin-1-yl-pyrido[3,4-d]pyrimidin-2-yl)-pyridin-2-yl]-(3-methoxy-4-methyl-phenyl)-amine], below 100 nM.
With `OC1(C2CN(c3nc(-c4ccnc(Cl)c4)nc4cncc(C5CC5)c34)CCN2)CC1` (stereo not shown) [Example 562, 1-{4-[2-(2-Chloro-pyridin-4-yl)-5-cyclopropyl-pyrido[3,4-d]pyrimidin-4-yl]-piperazin-2-yl}-cyclopropanol], the IC50 lay within 100 to 1000 nM.
In the case of `CC(C)(C)c1cc2c(-c3nc(N4CC[C@@H](O)C4)c4c(C5CC5)cncc4n3)ccnc2[nH]1` [Example 1250, (R)-1-[2-(2-tert-Butyl-1H-pyrrolo[2,3-b]pyridin-4-yl)-5-cyclopropyl-pyrido[3,4-d]pyrimidin-4-yl]-pyrrolidin-3-ol] it was below 100 nM; in that of `CCCc1nccc2c(N3CCNCC3)nc(-c3ccncc3)nc12` [Example 159, 4-piperazin-1-yl-8-propyl-2-pyridin-4-yl-pyrido[3,4-d]pyrimidine], 10000 to 40000 nM; in that of `Fc1cnc(F)c(Nc2cc(-c3nc(N4CCNCC4)c4c(C5CC5)cncc4n3)ccn2)c1` [Example 749, [4-(5-Cyclopropyl-4-piperazin-1-yl-pyrido[3,4-d]pyrimidin-2-yl)-pyridin-2-yl]-(2,5-difluoro-pyridin-3-yl)-amine], below 100 nM.
In the case of `CC(C)(C)c1cc2c(-c3nc(N4CCNCC4)c4c(C5CCC5)cncc4n3)ccnc2[nH]1` [Example 2010, 2-(2-tert-Butyl-1H-pyrrolo[2,3-b]pyridin-4-yl)-5-cyclobutyl-4-piperazin-1-yl-pyrido[3,4-d]pyrimidine], the IC50 is below 100 nM.
In the case of `COc1cncc2nc(-c3ccnc(Nc4ccccc4)c3)nc(N3CCC(C)(O)CC3)c12` [Example 223, 1-[5-Mcthoxy-2-(2-phenylamino-pyridin-4-yl)-pyrido[3,4-d]pyrimidin-4-yl]-4-methyl-piperidin-4-ol], the IC50 was 1000 to 10000 nM.
In the case of `COc1cncc2nc(-c3ccnc(Nc4ccccn4)c3)nc(N3CCNCC3)c12` [Example 387, [4-(5-Methoxy-4-piperazin-1-yl-pyrido[3,4-d]pyrimidin-2-yl)-pyridin-2-yl]-pyridin-2-yl-amine] it was below 100 nM; in that of `C[C@H]1CN(c2nc(-c3ccnc(Nc4ccccc4F)c3)nc3cncc(C4CC4)c23)CCN1` [Example 691, {4-[5-Cyclopropyl-4-((S)-3-methyl-piperazin-1-yl)-pyrido[3,4-d]pyrimidin-2-yl]-pyridin-2-yl}-(2-fluoro-phenyl)-amine], below 100 nM; in that of `Fc1ccc(F)c(Nc2cc(-c3nc(N4CCNCC4)c4c(C5CC5)cncc4n3)ccn2)n1` [Example 548, [4-(5-Cyclopropyl-4-piperazin-1-yl-pyrido[3,4-d]pyrimidin-2-yl)-pyridin-2-yl]-(3,6-difluoro-pyridin-2-yl)-amine], below 100 nM.
Turning to `CC1(C)CN(c2nc(-c3ccnc(Nc4ccn(CC(F)(F)F)n4)c3)nc3cncc(C4CC4)c23)CCN1` [Example 2017, {4-[5-Cyclopropyl-4-(3,3-dimethyl-piperazin-1-yl)-pyrido[3,4-d]pyrimidin-2-yl]-pyridin-2-yl}-[1-(2,2,2-trifluoro-ethyl)-1H-pyrazol-3-yl]-amine], the IC50 was below 100 nM.
In the case of `Fc1cccc(Nc2cc(-c3nc(N4CCNCC4)c4c(C5CC5)cncc4n3)ccn2)n1` [Example 483, [4-(5-Cyclopropyl-4-piperazin-1-yl-pyrido[3,4-d]pyrimidin-2-yl)-pyridin-2-yl]-(6-fluoro-pyridin-2-yl)-amine] it was below 100 nM; in that of `Cc1cccc(C)c1Nc1cc(-c2nc(N3CCNCC3)c3c(C4CC4)cncc3n2)ccn1` [Example 541, [4-(5-Cyclopropyl-4-piperazin-1-yl-pyrido[3,4-d]pyrimidin-2-yl)-pyridin-2-yl]-(2,6-dimethyl-phenyl)-amine], below 100 nM.
